Laboratory results: patent US20050059634A1, “Per-6-substituted-per-6-deoxy-cyclodextrins, and use of the same to inhibit soluble beta-amyloid-peptide derived oligomers and to treat alzheimer's and related diseases” (priority 2003, published 2005)

Columns and labels:
Aβ1-42 = target: T1, Aβ1-42 (Homo sapiens, UniProt P05067); experiment: ADDLs formation dot-blot assay (Aβ oligomerization); type: biochemical; conditions: for IC50: purified derivatives, Aβ1-42 10 nM, dot-blot densitometry at 4 hours, read-out: IC50, inhibition of ADDLs formation
T1 construct: an aliquot of Aβ1-42 was dissolved in anhydrous DMSO
T1 sequence (P05067 672-713 limits assumed): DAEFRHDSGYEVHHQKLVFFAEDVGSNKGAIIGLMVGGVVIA
Protocol: Using a high throughput dot blot assay recently developed for measuring Aβ oligomerization (L. Chang et al., J. Neuromol. Chem., 20, 305-313 (2003)), various beta-CD derivatives were evaluated for an ability to inhibit oligomerization of Aβ1-42. beta-CD (1) is a cyclic glucopyranose oligomer (FIG. 1), whose shape is reminiscent of a lamp-shade, frequently depicted schematically as compound 2 in FIG. 1. Actually three different hydroxyls are present in each sugar in the beta-CD molecule, which can be readily differentiated chemically. Additionally, no plane of symmetry exists in the molecule because the cyclic α-1,4-linkage forms a torus. Consequently, the primary hydroxyl groups are not equivalent when substituted. The end result of these structural features is that symmetry operations are not possible with different substitution patterns and each pattern represents a different compound. […]
ADDLs assay The assays were performed as set forth in Wang et al., J. Med. Chem., 47(13), pages 3329-3333 (2003). […] Time-dependent ADDLs formation was monitored by diluting 4 μl of […] Aβ/DMSO solutions with 196 μl of ice-cold F12 medium to 100 nM and 10 nM Aβ, respectively. […] These F12/CD solutions then were used in ADDLs assays, and the oligomer formation monitored as described. […]
ADDLs Western blot/dot blot assays For Western blots, samples were subjected to SDS-PAGE on 16.5% Tris-tricine gels at 100V […] for 1.5 to 2 hours. […] Visualization of proteins with chemiluminescent reagents was recorded by exposure to ECL film (Amersham-Pharmacia).
Dose response curves Dose response curves were prepared by performing the aforementioned dot-blot assays with Aβ1-42 (10 nM) in the presence of purified per-6-substituted-beta-CDs at the indicated concentrations. The response was determined for the dots at 4 hours using Kodak 1D imaging software and reported as log dose response of the ratio of beta-CD to Aβ1-42 as shown in FIG. 5.

PC12 cells = conditions: Camilleri et al. 1994; cited from earlier work

**Q.** What does the source list for OC[C@H]1O[C@@H]2O[C@H]3[C@H](O)[C@@H](O)[C@@H](O[C@H]4[C@H](O)[C@@H](O)[C@@H](O[C@H]5[C@H](O)[C@@H](O)[C@@H](O[C@H]6[C@H](O)[C@@H](O)[C@@H](O[C@H]7[C@H](O)[C@@H](O)[C@@H](O[C@H]8[C@H](O)[C@@H](O)[C@@H](O[C@H]1[C@H](O)[C@H]2O)O[C@@H]8CO)O[C@@H]7CO)O[C@@H]6CO)O[C@@H]5CO)O[C@@H]4CO)O[C@@H]3CO [beta-CD, beta-cyclodextrin]?
**A.** inhibitory activity in ADDLs formation assay (qualitative) (Aβ1-42; corresponding concentrations, same conditions as the purified derivatives): did not show any detectable inhibitory activity; effect on neurotoxic effects of Aβ1-40 (PC12 cells): substantially diminishes the neurotoxic effects

**Q.** Which IC50 (Aβ1-42) does the source give for OC1C2OC(CNCc3ccco3)C(OC3OC(CNCc4ccco4)C(OC4OC(CNCc5ccco5)C(OC5OC(CNCc6ccco6)C(OC6OC(CNCc7ccco7)C(OC7OC(CNCc8ccco8)C(OC8OC(CNCc9ccco9)C(O2)C(O)C8O)C(O)C7O)C(O)C6O)C(O)C5O)C(O)C4O)C(O)C3O)C1O (stereo not drawn) [4a, per-furfurylamino-6-deoxy-beta-CD] here?
**A.** 540 nM

**Q.** With OC1C2OC(CNCc3ccccc3)C(OC3OC(CNCc4ccccc4)C(OC4OC(CNCc5ccccc5)C(OC5OC(CNCc6ccccc6)C(OC6OC(CNCc7ccccc7)C(OC7OC(CNCc8ccccc8)C(OC8OC(CNCc9ccccc9)C(O2)C(O)C8O)C(O)C7O)C(O)C6O)C(O)C5O)C(O)C4O)C(O)C3O)C1O (stereo not drawn) [5a, per-benzylamino-6-deoxy-beta-CD] as the molecule, how does the IC50 (Aβ1-42) read?
**A.** 460 nM
